Experimental data from US9402839B2, “Selective targeting agents for mitochondria” (University of Pittsburgh—Of the Commonwealth System of …, priority 2006, dated 2016).

Key:
MECs = experiment: ActD-induced apoptosis in MECs (PS externalization, caspase-3 activation, DNA fragmentation); type: cell-based, mouse
Text: Cells that annexin V-positive and PI-negative were considered apoptotic.

[1] = system: rats subjected to volume-controlled hemorrhagic shock; experiment: Survival of rats subjected to volume-controlled hemorrhagic shock; type: in vivo, rat
Text: Surgical procedures to obtain vascular access. All study protocols using rats followed the guidelines for the use of experimental animals of the US National Institutes of Health and were approved by the Institutional Animal Care and Use Committee at the University of Pittsburgh.
Male specific pathogen-free Sprague Dawley rats (CHARLES RIVER LABORATORIES, Wilmington, Mass.), weighing 150-250 g, were housed in a temperature-controlled environment with a 12-h light/dark cycle. The rats had free access to food and water. For experiments, rats were anesthetized with intramuscular ketamine HCl (30 mg/kg) and intraperitoneal sodium pentobarbital (35 mg/kg). Animals were kept in a supine position during the experiments. Lidocaine (0.5 ml of a 0.5% solution) was injected subcutaneously to provide local anesthesia at surgical cut-down sites. In order to secure the airway, a tracheotomy was performed and polyethylene tubing (PE 240; BECTON-DICKINSON, Sparks, Md.) was introduced into the trachea. Animals were allowed to breathe spontaneously.
The right femoral artery was cannulated with polyethylene tubing (PE 10). This catheter was attached to a pressure transducer that allowed instantaneous measurement of mean arterial pressure (MAP) during the experiment. For experiments using the pressure-controlled hemorrhagic shock (HS) model, the right jugular vein was exposed, ligated distally, and cannulated with polyethylene tubing (PE 10) in order to withdraw blood. For experiments using the volume-controlled hemorrhagic shock (HS) model, the jugular catheter was used to infuse the resuscitation solution and the right femoral vein, which was cannulated with a silicon catheter (CHRONIC-CATH, NORFOLK MEDICAL, Skokie, Ill.), was used to withdraw blood.
All animals were instrumented within 30 min. Heparin (500 U/kg) was administered immediately after instrumentation through the femoral vein. Animals were placed in a thermal blanket to maintain their body temperature at 37° C. The positioning of the different devices aforementioned was checked postmortem.
Survival of rats subjected to volume-controlled hemorrhagic shock. Following surgical preparation and a 5-min stabilization period to obtain baseline readings, rats were subjected to hemorrhagic shock. Bleeding was carried out in 2 phases.
Initially, 21 ml/kg of blood was withdrawn over 20 min. Immediately thereafter, an additional 12.5 ml/kg of blood was withdrawn over 40 min. […]
Blood pressure was recorded continuously using a commercial strain-gauge transducer, amplifier, and monitor (S90603a, SPACELABS, Redmond, Wash.). […] Hemoglobin concentration [Hb], lactate and glucose concentration were determined using an auto-analyzer (Model ABL 725, […], Westlake, Ohio). […]

CC(C)C[C@@H](/C=C/[C@H](Cc1ccccc1)C(=O)N1CCC[C@H]1C(=O)N[C@H](C(=O)N[C@@H](CCCNC(=O)OCc1ccccc1)C(=O)NC1CC(C)(C)N([O])C(C)(C)C1)C(C)C)NC(=O)OC(C)(C)C [XJB-5-131]
DNA fragmentation (MECs; 10 μM, ActD 100 ng/mL): prevented DNA fragmentation | PS externalization (annexin V-positive cells) (MECs; 10 μM, ActD 100 ng/mL): reduced the number of annexin V-positive cells | caspase-3 activation (MECs; 10 μM, ActD 100 ng/mL): prevented caspase-3 activation | anti-apoptotic protection / cytotoxicity at higher concentrations (MECs; concentrations in excess of 10 μM): either less protective or exhibited cytotoxicity | rats surviving longer than 3 hours after completion of the hemorrhage protocol ([1]; 2 μmol/kg i.v.): Three of the six | survival versus vehicle-treated rats ([1]; 2 μmol/kg i.v. infusion during last 20 min of hemorrhage, no resuscitation): survived significantly longer | rats surviving the whole 6 hour post-bleeding observation period ([1]; 2 μmol/kg i.v., six rats): one | beneficial dose, times smaller than the TEMPOL dose of previous studies ([1]; ~0.1 mg/kg versus TEMPOL 30 mg/kg bolus+30 mg/kg per h): about 300 fold
